Test results from ChEMBL document CHEMBL4725415, “First Structure-Activity Relationship Study of Potent BLT2 Agonists as Potential Wound-Healing Promoters” (J Med Chem, 2020).
Values after ≈ are worked out from the molar mass of the structure shown.

Key:
[1] = physchem; settings: PBS buffer with 1% dimethyl sulfoxide, pH 7.4
[2] = in vitro; settings: Sprague-Dawley, rat, liver microsomes

**Q.** With `CCCCC(=O)N(Cc1ccc(-c2ccccc2C(=O)O)cc1)c1ccccc1` as the compound, how does the solubility [1] read?
**A.** Its solubility is 250 µM (≈ 96.9 µg/mL).

**Q.** And the remaining at 1 h, 1000 µM [2]?
**A.** The remaining at 1 h, 1000 µM was 66%.
